Strand notation (5' to 3'): a small letter for the sugar, then the base; units joined by * are phosphorothioate-linked, units joined directly phosphodiester-linked; [ ] holds rarer units or linkages, { } end groups; capitals alone tell only the bases. k = constrained ethyl (cEt); [5mC] = 5-methylcytosine; d = 2'-deoxy (DNA)
test system: human SMAD7 mRNA; assay: Antisense inhibition of human SMAD7 mRNA expression in Hep3B cells by 3-10-3 cEt gapmers, 10,000 nM, electroporation (Example 2); type: cell-based; conditions: Hep3B cells, 10,000 nM antisense oligonucleotide, electroporation, approximately 24 hours, RT-PCR primer probe set RTS5062, relative to untreated control cells
How it was run: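 SMAD7 mRNA was measured by real-time PCR (RTS5062) with RiboGreen total-RNA normalization, about 24 h after 10,000 nM gapmer was delivered by electroporation into Hep3B cells at 20,000 per well. Gapmers were 16-mer 3-10-3 cEt, fully phosphorothioate; values are % inhibition versus untreated controls.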

First: 798871 (kA*kA*kA*dG*d[5mC]*d[5mC]*dT*dT*dG*dA*dT*dG*dG*kA*kG*kA; antisense) [compound 798871]
Second: 798872 (kT*kA*kG*dT*d[5mC]*dG*dA*dA*dA*dG*d[5mC]*d[5mC]*dT*kT*kG*kA; antisense) [compound 798872]
The “% Inhibition” value of the first is higher: 20% for the first, 2% for the second.

“798873 (kG*k[5mC]*kT*dG*dT*dA*d[5mC]*dG*d[5mC]*d[5mC]*dT*dT*d[5mC]*kT*k[5mC]*kG; antisense) [compound 798873]” and “798874 (kG*k[5mC]*kA*dG*dG*d[5mC]*dT*dG*dT*dA*d[5mC]*dG*d[5mC]*k[5mC]*kT*kT; antisense) [compound 798874]” are the same in “% Inhibition” value: 27% for the first, 27% for the second.

Going from “798875 (k[5mC]*kG*k[5mC]*dT*dG*d[5mC]*dA*dG*dG*d[5mC]*dT*dG*dT*kA*k[5mC]*kG; antisense) [compound 798875]” to “798876 (kG*kG*k[5mC]*d[5mC]*dG*d[5mC]*dT*dG*d[5mC]*dA*dG*dG*d[5mC]*kT*kG*kT; antisense) [compound 798876]”, the “% Inhibition” value falls from 58% to 50%.

Going from “798877 (k[5mC]*kA*kT*dT*dG*dG*dG*d[5mC]*d[5mC]*dG*d[5mC]*dT*dG*k[5mC]*kA*kG; antisense) [compound 798877]” to “798878 (k[5mC]*kT*kG*d[5mC]*dT*dG*d[5mC]*dA*dT*dA*dA*dA*d[5mC]*kT*k[5mC]*kG; antisense) [compound 798878]”, the “% Inhibition” value rises from 24% to 49%.

First: 798889 (k[5mC]*kA*k[5mC]*dA*dA*dA*dG*d[5mC]*dT*dG*dA*dT*d[5mC]*kT*kG*k[5mC]; antisense) [compound 798889]
Second: 798890 (k[5mC]*kT*kT*d[5mC]*dA*d[5mC]*dA*dA*dA*dG*d[5mC]*dT*dG*kA*kT*k[5mC]; antisense) [compound 798890]
The “% Inhibition” value of the first is lower: 0% for the first, 40% for the second.

Compared with “798891 (kG*k[5mC]*k[5mC]*d[5mC]*dT*dT*d[5mC]*dA*d[5mC]*dA*dA*dA*dG*k[5mC]*kT*kG; antisense) [compound 798891]”, “798892 (k[5mC]*k[5mC]*k[5mC]*d[5mC]*dA*dG*d[5mC]*d[5mC]*d[5mC]*dT*dT*d[5mC]*dA*k[5mC]*kA*kA; antisense) [compound 798892]” is lower in “% Inhibition” value: 58% for the first, 39% for the second.

Compared with “798893 (kT*kG*kG*d[5mC]*d[5mC]*d[5mC]*d[5mC]*dA*dG*d[5mC]*d[5mC]*d[5mC]*dT*kT*k[5mC]*kA; antisense) [compound 798893]”, “798894 (kA*kG*k[5mC]*dA*d[5mC]*dT*dG*dG*d[5mC]*d[5mC]*d[5mC]*d[5mC]*dA*kG*k[5mC]*k[5mC]; antisense) [compound 798894]” is lower in “% Inhibition” value: 77% for the first, 55% for the second.

Going from “798895 (kT*kG*kT*dA*dG*d[5mC]*dA*d[5mC]*dT*dG*dG*d[5mC]*d[5mC]*k[5mC]*k[5mC]*kA; antisense) [compound 798895]” to “798896 (kG*kG*kG*dT*dG*dT*dA*dG*d[5mC]*dA*d[5mC]*dT*dG*kG*k[5mC]*k[5mC]; antisense) [compound 798896]”, the “% Inhibition” value falls from 53% to 46%.

With “798897 (kG*kG*k[5mC]*dG*dG*dG*dT*dG*dT*dA*dG*d[5mC]*dA*k[5mC]*kT*kG; antisense) [compound 798897]” the “% Inhibition” value was 60%.

same assay, conditions: Hep3B cells, electroporation with 10,000 nM antisense oligonucleotide, approximately 24 hours, SMAD7 mRNA by RT-PCR (RTS5062), relative to untreated control cells

Going from “798870 (kG*kG*kG*dA*dA*d[5mC]*dA*d[5mC]*d[5mC]*dT*dT*dG*dT*kG*kT*kA; antisense) [compound 798870]” to “798879 (kA*k[5mC]*kG*dG*d[5mC]*dT*dG*d[5mC]*dT*dG*d[5mC]*dA*dT*kA*kA*kA; antisense) [compound 798879]”, the “% Inhibition” value rises from 14% to 57%.

Compared with “798880 (kT*k[5mC]*k[5mC]*dA*d[5mC]*dG*dG*d[5mC]*dT*dG*d[5mC]*dT*dG*k[5mC]*kA*kT; antisense) [compound 798880]”, “798881 (k[5mC]*k[5mC]*kG*dT*d[5mC]*d[5mC]*dA*d[5mC]*dG*dG*d[5mC]*dT*dG*k[5mC]*kT*kG; antisense) [compound 798881]” is lower in “% Inhibition” value: 37% for the first, 14% for the second.

“798882 (kA*kG*k[5mC]*d[5mC]*d[5mC]*dG*dT*d[5mC]*d[5mC]*dA*d[5mC]*dG*dG*k[5mC]*kT*kG; antisense) [compound 798882]” and “798883 (kT*kA*kA*dA*dG*d[5mC]*d[5mC]*d[5mC]*dG*dT*d[5mC]*d[5mC]*dA*k[5mC]*kG*kG; antisense) [compound 798883]” are the same in “% Inhibition” value: 0% for the first, 0% for the second.

First: 798884 (k[5mC]*kG*kG*dT*dA*dA*dA*dG*d[5mC]*d[5mC]*d[5mC]*dG*dT*k[5mC]*k[5mC]*kA; antisense) [compound 798884]
Second: 798885 (kG*k[5mC]*kA*d[5mC]*dG*dG*dT*dA*dA*dA*dG*d[5mC]*d[5mC]*k[5mC]*kG*kT; antisense) [compound 798885]
The “% Inhibition” value of the first is lower: 15% for the first, 43% for the second.

Going from “798886 (kT*k[5mC]*kT*dG*d[5mC]*dA*d[5mC]*dG*dG*dT*dA*dA*dA*kG*k[5mC]*k[5mC]; antisense) [compound 798886]” to “798887 (k[5mC]*kT*kG*dA*dT*d[5mC]*dT*dG*d[5mC]*dA*d[5mC]*dG*dG*kT*kA*kA; antisense) [compound 798887]”, the “% Inhibition” value falls from 29% to 26%.

Going from “798888 (kA*kA*kA*dG*d[5mC]*dT*dG*dA*dT*d[5mC]*dT*dG*d[5mC]*kA*k[5mC]*kG; antisense) [compound 798888]” to “798898 (kA*kG*k[5mC]*dT*dG*d[5mC]*dT*dG*dA*dT*dG*dA*dA*k[5mC]*kT*kG; antisense) [compound 798898]”, the “% Inhibition” value falls from 40% to 2%.

First: 798899 (kG*kG*k[5mC]*dA*dG*d[5mC]*dT*dG*d[5mC]*dT*dG*dA*dT*kG*kA*kA; antisense) [compound 798899]
Second: 798900 (k[5mC]*k[5mC]*kA*dG*d[5mC]*dA*d[5mC]*dG*dG*dG*d[5mC]*dA*dG*k[5mC]*kT*kG; antisense) [compound 798900]
The “% Inhibition” value of the first is higher: 13% for the first, 0% for the second.

First: 798901 (k[5mC]*k[5mC]*kT*d[5mC]*dT*dA*dG*d[5mC]*d[5mC]*dA*dG*d[5mC]*dA*k[5mC]*kG*kG; antisense) [compound 798901]
Second: 798902 (kT*kG*kA*d[5mC]*d[5mC]*dT*d[5mC]*dT*dA*dG*d[5mC]*d[5mC]*dA*kG*k[5mC]*kA; antisense) [compound 798902]
The “% Inhibition” value of the first is lower: 30% for the first, 54% for the second.

Compared with “798903 (kA*kA*kG*dA*dT*dG*dA*d[5mC]*d[5mC]*dT*d[5mC]*dT*dA*kG*k[5mC]*k[5mC]; antisense) [compound 798903]”, “798904 (kT*kT*kG*dA*dA*dG*dA*dT*dG*dA*d[5mC]*d[5mC]*dT*k[5mC]*kT*kA; antisense) [compound 798904]” is lower in “% Inhibition” value: 48% for the first, 23% for the second.

For “798905 (kG*kG*k[5mC]*dT*dG*dT*dT*dG*dA*dA*dG*dA*dT*kG*kA*k[5mC]; antisense) [compound 798905]”, the “% Inhibition” value was 35%.

Source: patent US10517889B2, “Modulators of SMAD7 expression” (Ionis Pharmaceuticals, Inc., priority 2017, dated 2019)
